Assay [1] relates to collagen-induced arthritis in mice. Kind of assay: In vivo CIA model (collagen-induced mouse arthritis). Details: species or system DBA/1 mice. Particulars: for total pathological score (two hind limbs, HE staining): Mean±SEM. The source says: The collagen-induced mouse arthritis model is an animal model for evaluating the therapeutic effect of drug treatment for psoriatic arthritis, of which pathogenesis and symptoms are obviously related to psoriatic arthritis. The model activated the reactivity of B cells and T cells to collagen by the injection of type II collagen. The activated B cells and T cells were attracted to the joints to cause the inflammation, thereby triggering a series of symptoms related to human psoriatic arthritis, such as redness and swelling of the joints, articular cartilage, joint capsule damage and other symptoms. Collagen-induced mouse arthritis is often used to evaluate the therapeutic effect during preclinical evaluation of candidate compounds for the medication for treating psoriatic arthritis.
The purpose of the experiment was to examine the therapeutic effect of the compound WX063 of embodiment 63 on collagen-induced arthritis in mice, thereby providing the preclinical pharmacodynamics information for subsequent clinical studies.
Mice were randomly divided into different treatment groups. The first immunization day is recorded as Day 0, and the following days were recorded in order.
After the DBA/1 mice were anesthetized with isoflurane, the prepared collagen emulsion was subcutaneously injected into the tail.
On Day 23, 100 μL of LPS solution was administered intraperitoneally.
On day 27, as the mean clinical score reached about 1 point, 60 mice with moderate disease were selected and re-randomized according to body weight and score, with 10 mice per group.
Dexamethasone as a positive control drug was administered at a dose of 0.3 mg/kg, which was common in the CIA model. […] It was administered once a day for a total of 11 days. The volume of the intragastric administration was 10 mL/kg.
Clinical observation: From Day 7 before immunization to Day 23 after immunization, the basic health status and the body weight changes of the DBA/1 mice were observed daily (recorded once a week). After Day 23, the health status, the arthritis incidence and the body weight changes of the mice were observed daily (recorded at least three times a week) until the end of the experiment.
Clinical score: After LPS injection, the arthritis incidence of mice was observed daily. As the clinical symptoms of arthritis occurred, the degree of disease was scored according to the standards of 0-4 (redness, joint deformation) at least three times a week, wherein the highest score for each limb was 4 points, and the highest score for each animal was 16 points. […].
Pathology: On day 38, the mice were euthanized. The hind limbs of the mice were taken, soaked in the 10% formalin solution, decalcified with formic acid solution, embedded in paraffin, sectioned, and stained with hematoxylin-eosin and photographed by microscopy. The degree of joint damage was evaluated from four aspects: inflammatory cell infiltration, formation of […], cartilage damage and bone resorption, and scored according to the standards of 0-4.
The experimental data were expressed as mean value±standard error of mean (Mean±SEM). The body weight and the clinical scores were analyzed by double factor variance (two-way ANOVA). Pathological scores and AUC were tested by T test. p<0.05 was considered as significant difference.

Another assay addresses Recombinant human PDE4B (Homo sapiens (Human), UniProt Q07343). Kind of assay: Inhibitory activity against PDE 4B in vitro (fluorescence polarization, Transcreener AMP2/GMP2). Particulars: 1 μM cAMP. The class given is biochemical. The method, then: Inhibitory activity of the compounds against PDE 4B
The enzyme activity was indicated by measuring the AMP/GMP expression and tracing AMP/GMP antibody binding based on fluorescence polarization in the biological assay.
10 mM Tris-HCl (pH 7.5), 5 mM MgCl2, 0.01% Brij 35, 1 mM DTT and 1% DMSO.
Recombinant human PDE4B (Gen accession number: NM_002600; amino acid 305 end) was expressed by baculovirus in Sf9 insect cells using an N-terminal GST tag. MW=78 kDa.
Transcreener® AMP2/GMP2 antibody and AMP2/GMP2 AlexaFluor633 tracer
i) Recombinant human PDE4B and the enzyme substrate (1 μM cAMP) were dissolved in the newly-prepared buffer solution, respectively.
ii) The PDE4B buffer solution defined as above was transferred into the reaction wells.
iii) The compound which was dissolved in 100% DMSO was added to the reaction wells of the PDE4B buffer solution by ultrasonic oscillator (echo 550; nanoliter range) and incubated at room temperature for 10 minutes.
iv) The enzymatic buffer solution was then added to the reaction wells defined as above to initiate the reaction.
v) The reaction was incubated at room temperature for 1 hour.
vi) The reaction was terminated by adding detecting mixture (Transcreener® AMP2/GMP2 antibody and AMP2/GMP2 AlexaFluor633 tracer) and incubated for 90 minutes with slowly mixing. The measurement range of fluorescence polarization is Ex/Em=620/688.
The fluorescence polarization signal was converted into nM according to the AMP/GMP standard curve and the percent enzyme activity relative to DMSO calculated by Excel. GraphPad Prism was used to plot the curves (Drawing Medicine Icon).
(Polarisation of emitted light reports the rotation of a fluorescent probe.)

Assay [2] deals with LPS-induced TNFα from the peripheral monocytes of human. The assay is described as follows: Inhibitory effect against LPS-induced TNFα in hPBMC in vitro (ELISA). The class given is cell-based. The following applies: Monocyte, TNFα in supernatant, 24 hours. How it is done: Inhibitory activity of the compounds against the LPS-induced TNFα from the peripheral monocytes of human.
1. Whole blood in normal human was collected and EDTA-K2 was used as anticoagulant.
2. PBMC was isolated by Ficoll density gradient centrifugation. The concentration of the cells was adjusted to 2×10^6/mL.
3. 2×10^5 of cells were seed in per well of the 96-well U-bottom plate, followed by the addition of 200 μL/well of LPS with 1 ng/mL and 200 μL/per well of the compound with different concentration: […], 100 pM and 10 pM, with two duplicates of each concentration.
4. The reaction was incubated for 24 hours and the supernatant was collected.
5. ELISA was used to detect the level of TNFα in the supernatant and Graphpad Prism software was used to plot the inhibition curve and calculate the value of IC50.
On the technique in general: ELISA stands for enzyme-linked immunosorbent assay.

Chain of Recombinant human PDE4B (Q07343 305-736 limits assumed): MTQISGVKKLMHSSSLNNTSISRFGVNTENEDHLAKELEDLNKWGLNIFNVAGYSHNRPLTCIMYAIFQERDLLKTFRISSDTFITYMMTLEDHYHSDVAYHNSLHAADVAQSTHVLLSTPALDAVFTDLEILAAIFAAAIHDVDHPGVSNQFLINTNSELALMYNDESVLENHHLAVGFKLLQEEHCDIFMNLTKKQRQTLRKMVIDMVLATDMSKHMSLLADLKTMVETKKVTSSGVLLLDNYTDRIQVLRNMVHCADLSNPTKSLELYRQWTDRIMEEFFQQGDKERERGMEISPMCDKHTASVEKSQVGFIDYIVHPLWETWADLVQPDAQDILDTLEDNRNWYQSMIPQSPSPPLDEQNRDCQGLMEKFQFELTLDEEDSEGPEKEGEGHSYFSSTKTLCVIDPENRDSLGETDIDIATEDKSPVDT

In assay [1] (5 mg/kg intragastric once a day, Day 37), `CCOc1cc([C@@H](CS(C)(=O)=O)N2C(=O)c3cccc(NC(C)=O)c3C2=O)ccc1OC` [Apremilast, reference compound] displayed a mean clinical score of 4.2 points. Also, the “mean clinical score lower compared with the vehicle control group” value in assay [1] (5 mg/kg, Day 37) is 3.7 points. In addition, the “total pathological score (two hind limbs, HE staining)” value in assay [1] (5 mg/kg) was found to be 13.90±1.89. Take `C[C@@H]1C[C@H]2[C@@H]3CCC4=CC(=O)C=C[C@]4(C)[C@@]3(F)[C@@H](O)C[C@]2(C)[C@@]1(O)C(=O)CO` [Dexamethasone, reference compound]: the “percentage inhibition of clinical score AUC relative to the vehicle control group” value in assay [1] (0.3 mg/kg) is 96.4%. The same compound registered a clinical score in assay [1] (0.3 mg/kg intragastric once a day, Day 30 and maintained to the end of the trial) of 0 points. For the compound `CCOc1cc([C@@H](CS(C)(=O)=O)n2c(=O)n(C)c3cc(-c4ccccc4F)cnc32)ccc1OC` [WX057], the IC50 on Recombinant human PDE4B was 1.25 nM; in assay [2], 3.4 nM. On to `CCOc1cc([C@@H](CS(C)(=O)=O)n2c(=O)n(C3CCC3)c3cc(-c4ccccc4F)cnc32)ccc1OC` [WX062], for which the IC50 on Recombinant human PDE4B turned out to be 3.5 nM. `CCOc1cc([C@@H](CS(C)(=O)=O)n2c(=O)[nH]c3c(C)c(-c4ccccc4F)cnc32)ccc1OC` [WX063]: the IC50 at Recombinant human PDE4B stood at 0.685 nM; in assay [2], 0.56 nM. In addition, the “percentage inhibition of clinical score AUC relative to the vehicle control group” value in assay [1] (0.3 mg/kg) worked out at 43.9%; in assay [1] (1 mg/kg), 39.4%; in assay [1] (3 mg/kg), 51.7%. In addition, the mean clinical score in assay [1] (0.3 mg/kg intragastric once a day, Day 37) is 3.6 points; in assay [1] (1 mg/kg intragastric once a day, Day 37), 4.3 points; in assay [1] (3 mg/kg intragastric once a day, Day 37), 3.5 points. The “total pathological score (two hind limbs, HE staining)” value is 14.00±2.43 in assay [1] (1 mg/kg) and 9.20±1.83 in assay [1] (3 mg/kg). For the same compound, in assay [1] (3 mg/kg), the “therapeutic effect (clinical score and arthritis pathology score) versus Apremilast 5 mg/kg (in words)” value is “better than the one of Apremilast”. Moreover, the “treatment of collagen-induced arthritis and pathological changes of arthritis (in words)” value in assay [1] (doses of 0.3, 1 and 3 mg/kg) is listed as “significant improvement”.

As for `CCOc1cc([C@@H](CS(C)(=O)=O)n2c(=O)[nH]c3c(C)c(-c4ccccc4)cnc32)ccc1OC` [WX064], at Recombinant human PDE4B, the IC50 was found to be 2.23 nM. On to `CCOc1cc([C@@H](CS(C)(=O)=O)n2c(=O)[nH]c3c(-c4ccccc4F)ccnc32)ccc1OC` [WX065], for which the IC50 stood at 1.87 nM on Recombinant human PDE4B and 8.8 nM in assay [2].

As for `CCOc1cc([C@@H](CS(C)(=O)=O)n2c(=O)[nH]c3c(-c4ccccc4)ccnc32)ccc1OC` [WX066], the figures for the IC50 (at Recombinant human PDE4B; in assay [2]) were 2.48 nM and 3.8 nM, respectively. The corresponding values for `CCOc1cc([C@@H](CS(C)(=O)=O)n2c(=O)[nH]c3c(-c4cnn(C)c4)ccnc32)ccc1OC` [WX067] are 18.5 nM and 6.4 nM. On to `CCOc1cc([C@@H](CS(C)(=O)=O)n2c(=O)[nH]c3c(Cc4ccccc4F)ccnc32)ccc1OC` [WX068], for which the IC50 at Recombinant human PDE4B was 2.24 nM. The same measure, in the same setting: in the case of `CCOc1cc(C(CS(C)(=O)=O)N2C(=O)Cc3cc(Br)cnc32)ccc1OC` (stereo not shown) [WX069] it was 47.8 nM; in that of `CCOc1cc(C(CS(C)(=O)=O)n2c(=O)oc3cc(Br)cnc32)ccc1OC` (stereo not shown) [WX070], 73.8 nM. As to `CCOc1cc(C(CS(C)(=O)=O)n2c(=O)oc3cc(-c4ccccc4F)cnc32)ccc1OC` (stereo not shown) [WX071], on Recombinant human PDE4B, the IC50 is 0.74 nM. As for `CCOc1cc(C(CS(C)(=O)=O)n2c(=O)[nH]c3cc(-c4ccccc4F)cnc32)ccc1OC(F)F` (stereo not shown) [WX073], the IC50 on Recombinant human PDE4B was less than 0.5 nM.

Consider `CCOc1cc(C(CS(C)(=O)=O)n2c(=O)[nH]c3cc(-c4ccccc4)cnc32)ccc1OC(F)F` (stereo not shown) [WX074], for which the IC50 at Recombinant human PDE4B stood at 1.03 nM. For `CCOc1cc(C(CS(C)(=O)=O)n2c(=O)[nH]c3c(C)c(C)cnc32)ccc1OC(F)F` (stereo not shown) [WX075], the IC50 at Recombinant human PDE4B is 5.39 nM. `CCOc1cc(C(CS(C)(=O)=O)n2c(=O)[nH]c3c(C)c(-c4ccccc4F)cnc32)ccc1OC(F)F` (stereo not shown) [WX076]: the IC50 on Recombinant human PDE4B was less than 0.5 nM.

With `CCOc1cc(C(CS(C)(=O)=O)n2c(=O)[nH]c3c(C)c(-c4ccccc4)cnc32)ccc1OC(F)F` (stereo not shown) [WX077], on Recombinant human PDE4B, the IC50 was 1.01 nM. On the same count and under the same terms, in the case of `CCOc1cc(C(CS(C)(=O)=O)n2c(=O)[nH]c3c(-c4ccccc4)ccnc32)ccc1OC(F)F` (stereo not shown) [WX078] it was less than 0.5 nM.

Broadly, the IC50 is the midpoint of a concentration-inhibition curve.
